Reference: patent US20070128217A1 (priority 2003, published 2007)

Columns and labels:
[1] = system: rabbit serum obtained by immunizing a rabbit with the SARS-CoV strain Frankfurt 1; assay type: binding; set-up: Binding of a rabbit serum to linear peptides / Binding of a rabbit serum to looped peptides / Rabbit serum linear peptides / Rabbit serum looped peptides / Binding of a rabbit serum to linear peptides of protein N of SARS-CoV Urbani (Rabbit serum linear peptides) / Binding of a rabbit serum to looped/cyclic peptides of protein N of SARS-CoV Urbani (Rabbit serum looped peptides): unit not given here
[2] = system: control sera (pooled serum of ten healthy LUMC hospital workers; commercial negative donor pooled serum from the Dutch bloodbank); assay type: binding, human; set-up: Binding of Control serum LUMC to linear peptides / Binding of Control serum Blood-bank to linear peptides / Binding of Control serum LUMC to looped peptides / Binding of Control Serum Blood-Bank to Looped peptides / Binding of Control serum LUMC to linear peptides of the protein M of SARS-CoV Urbani / Binding of Control serum Blood-bank to linear peptides of the protein M of SARS-CoV Urbani / Binding of Control serum LUMC to looped peptides of the protein M of SARS-CoV Urbani / Binding of Control Serum Blood-Bank to Looped peptides of the protein M of SARS-CoV Urbani: unit not given here
[3] = system: antibodies in sera from SARS patients (sera 1a, 1b, 2, 6, 37, 62, London, SARS-yellow, SARS-green); assay type: binding, human; set-up: Binding of serum 6 to linear peptides of protein X1 of SARS-CoV Urbani / Binding of serum 37 to linear peptides of protein X1 of SARS-CoV Urbani / Binding of serum 6 to looped/cyclic peptide (PEPSCAN-ELISA) / Binding of serum 37 to looped/cyclic peptide (PEPSCAN-ELISA) / Binding of serum 37 to looped/cyclic peptides of protein X1 of SARS-CoV Urbani / Binding of serum 6 to linear peptides of protein X2 / Binding of serum 37 to linear peptides of protein X2 / Binding of serum 37 to looped/cyclic peptides of protein X2 of SARS-CoV Urbani / Binding of serum 6 to linear peptides of protein M of SARS-CoV Urbani / Binding of serum 37 to linear peptides of protein M of SARS-CoV Urbani / Binding of serum 6 to looped/cyclic peptides of protein M of SARS-CoV Urbani / Binding of serum 37 to looped/cyclic peptides of protein M of SARS-CoV Urbani / Binding of serum 6 to linear peptides of protein X3 of SARS-CoV Urbani / Binding of serum 37 to linear peptides of protein X3 of SARS-CoV Urbani / Binding of serum 37 to looped/cyclic peptides of protein X3 of SARS-CoV Urbani / Binding of serum 6 to linear peptides of protein X4 of SARS-CoV Urbani / Binding of serum 37 to linear peptides of protein X4 of SARS-CoV Urbani / Binding of serum 37 to looped/cyclic peptides of protein X4 of SARS-CoV Urbani / Binding of serum 6 to linear peptides of protein X5 of SARS-CoV Urbani / Binding of serum 37 to linear peptides of protein X5 of SARS-CoV Urbani / Binding of serum 37 to looped/cyclic peptides of protein X5 of SARS-CoV Urbani / Binding of serum 6 to linear peptides of protein N of SARS-CoV Urbani / Binding of serum 37 to linear peptides of protein N of SARS-CoV Urbani / Binding of serum 6 to linear peptide (PEPSCAN-ELISA) / Binding of serum 1a to looped/cyclic peptides of protein N of SARS-CoV Urbani / Binding of serum 1b to looped/cyclic peptides of protein N of SARS-CoV Urbani / Binding of serum 2 to looped/cyclic peptides of protein N of SARS-CoV Urbani / Binding of serum 6 to looped/cyclic peptides of protein N of SARS-CoV Urbani / Binding of serum 37 to looped/cyclic peptides of protein N of SARS-CoV Urbani / Binding of serum 62 to looped/cyclic peptides of protein N of SARS-CoV Urbani / Binding of serum London to looped/cyclic peptides of protein N of SARS-CoV Urbani / Binding of serum SARS-green to looped/cyclic peptides of protein N of SARS-CoV Urbani: unit not given here

KLVFLWLLWPVTLAC
0.1: Rabbit serum linear peptides [1]
0.0: Rabbit serum looped peptides [1]
0.6: Binding of Control serum LUMC to looped peptides of the protein M of SARS-CoV Urbani [2] | Binding of serum 1a to looped/cyclic peptides of protein M of SARS-CoV Urbani [3] | Binding of serum 1b to linear peptides of protein M of SARS-CoV Urbani [3] | Binding of serum 2 to looped/cyclic peptides of protein M of SARS-CoV Urbani [3] | Binding of serum 37 to looped/cyclic peptides of protein M of SARS-CoV Urbani [3] | Binding of serum 62 to looped/cyclic peptides of protein M of SARS-CoV Urbani [3]
0.7: Binding of Control Serum Blood-Bank to Looped peptides of the protein M of SARS-CoV Urbani [2] | Binding of Control serum Blood-bank to linear peptides of the protein M of SARS-CoV Urbani [2] | Binding of serum 1a to linear peptides of protein M of SARS-CoV Urbani [3] | Binding of serum 6 to looped/cyclic peptides of protein M of SARS-CoV Urbani [3]
0.3: Binding of serum SARS-green to looped/cyclic peptides of protein M of SARS-CoV Urbani [3]
0.2: Binding of serum 1b to looped/cyclic peptides of protein M of SARS-CoV Urbani [3] | Binding of serum London to looped/cyclic peptides of protein M of SARS-CoV Urbani [3] | Binding of serum SARS-yellow to linear peptides of protein M of SARS-CoV Urbani [3]
0.4: Binding of serum 6 to linear peptides of protein M of SARS-CoV Urbani [3] | Binding of serum London to linear peptides of protein M of SARS-CoV Urbani [3] | Binding of serum SARS-green to linear peptides of protein M of SARS-CoV Urbani [3]
0.5: Binding of Control serum LUMC to linear peptides of the protein M of SARS-CoV Urbani [2] | Binding of serum 2 to linear peptides of protein M of SARS-CoV Urbani [3] | Binding of serum 37 to linear peptides of protein M of SARS-CoV Urbani [3] | Binding of serum 62 to linear peptides of protein M of SARS-CoV Urbani [3] | Binding of serum SARS-yellow to looped/cyclic peptides of protein M of SARS-CoV Urbani [3]

AFLAVFQSATKIIAL
0.7: Binding of Control Serum Blood-Bank to Looped peptides [2] | Binding of serum 1a to linear peptides of protein X1 of SARS-CoV Urbani [3]
0.3: Binding of serum SARS-green to linear peptides of protein X1 of SARS-CoV Urbani [3] | Binding of serum SARS-green to looped/cyclic peptide (PEPSCAN-ELISA) [3] | Binding of serum SARS-yellow to linear peptides of protein X1 of SARS-CoV Urbani [3]
0.6: Binding of Control serum LUMC to looped peptides [2] | Binding of serum 37 to linear peptides of protein X1 of SARS-CoV Urbani [3] | Binding of serum 37 to looped/cyclic peptide (PEPSCAN-ELISA) [3] | Binding of serum 62 to looped/cyclic peptide (PEPSCAN-ELISA) [3] | Binding of serum SARS-yellow to looped/cyclic peptide (PEPSCAN-ELISA) [3]
1.6: Binding of serum London to looped/cyclic peptide (PEPSCAN-ELISA) [3]
0.5: Binding of Control serum Blood-bank to linear peptides [2] | Binding of Control serum LUMC to linear peptides [2] | Binding of serum 1a to looped/cyclic peptide (PEPSCAN-ELISA) [3] | Binding of serum 2 to linear peptides of protein X1 of SARS-CoV Urbani [3] | Binding of serum 2 to looped/cyclic peptide (PEPSCAN-ELISA) [3] | Binding of serum 62 to linear peptides of protein X1 of SARS-CoV Urbani [3]
1.3: Binding of serum 6 to looped/cyclic peptide (PEPSCAN-ELISA) [3]
0.4: Binding of serum 1b to linear peptides of protein X1 of SARS-CoV Urbani [3] | Binding of serum 1b to looped/cyclic peptide (PEPSCAN-ELISA) [3] | Binding of serum 6 to linear peptides of protein X1 of SARS-CoV Urbani [3]
0.8: Binding of a rabbit serum to looped peptides [1]
0.2: Binding of a rabbit serum to linear peptides [1] | Binding of serum London to linear peptides of protein X1 of SARS-CoV Urbani [3]

QFLYLYALIYFLQCI
0.4: Binding of a rabbit serum to looped peptides [1] | Binding of Control serum LUMC to linear peptides [2] | Binding of serum 6 to linear peptides of protein X1 of SARS-CoV Urbani [3]
0.1: Binding of a rabbit serum to linear peptides [1]
0.7: Binding of serum 1a to linear peptides of protein X1 of SARS-CoV Urbani [3]
0.5: Binding of Control Serum Blood-Bank to Looped peptides [2] | Binding of Control serum Blood-bank to linear peptides [2] | Binding of serum 1a to looped/cyclic peptide (PEPSCAN-ELISA) [3] | Binding of serum 1b to linear peptides of protein X1 of SARS-CoV Urbani [3] | Binding of serum 2 to linear peptides of protein X1 of SARS-CoV Urbani [3] | Binding of serum 37 to looped/cyclic peptide (PEPSCAN-ELISA) [3] | Binding of serum 62 to linear peptides of protein X1 of SARS-CoV Urbani [3] | Binding of serum 62 to looped/cyclic peptide (PEPSCAN-ELISA) [3] | Binding of serum SARS-yellow to linear peptides of protein X1 of SARS-CoV Urbani [3]
0.2: Binding of serum 6 to looped/cyclic peptide (PEPSCAN-ELISA) [3] | Binding of serum London to linear peptides of protein X1 of SARS-CoV Urbani [3] | Binding of serum London to looped/cyclic peptide (PEPSCAN-ELISA) [3] | Binding of serum SARS-green to linear peptides of protein X1 of SARS-CoV Urbani [3] | Binding of serum SARS-green to looped/cyclic peptide (PEPSCAN-ELISA) [3]
0.3: Binding of serum 1b to looped/cyclic peptide (PEPSCAN-ELISA) [3] | Binding of serum 2 to looped/cyclic peptide (PEPSCAN-ELISA) [3] | Binding of serum SARS-yellow to looped/cyclic peptide (PEPSCAN-ELISA) [3]
0.6: Binding of Control serum LUMC to looped peptides [2] | Binding of serum 37 to linear peptides of protein X1 of SARS-CoV Urbani [3]

TLVLKMLHSSSLTSL
0.2: Binding of a rabbit serum to linear peptides [1]
0.3: Binding of serum SARS-green to looped/cyclic peptides of protein X2 of SARS-CoV Urbani [3]
1.0: Binding of serum 6 to looped/cyclic peptides of protein X2 of SARS-CoV Urbani [3] | Binding of serum London to looped/cyclic peptides of protein X2 of SARS-CoV Urbani [3]
0.4: Binding of a rabbit serum to looped peptides [1] | Binding of serum 2 to linear peptides of protein X2 [3] | Binding of serum 6 to linear peptides of protein X2 [3] | Binding of serum London to linear peptides of protein X2 [3] | Binding of serum SARS-green to linear peptides of protein X2 [3] | Binding of serum SARS-yellow to linear peptides of protein X2 [3]
0.5: Binding of Control serum LUMC to linear peptides [2] | Binding of serum 1b to linear peptides of protein X2 [3] | Binding of serum 2 to looped/cyclic peptides of protein X2 of SARS-CoV Urbani [3] | Binding of serum 37 to linear peptides of protein X2 [3] | Binding of serum 37 to looped/cyclic peptides of protein X2 of SARS-CoV Urbani [3] | Binding of serum SARS-yellow to looped/cyclic peptides of protein X2 of SARS-CoV Urbani [3]
0.6: Binding of serum 1b to looped/cyclic peptides of protein X2 of SARS-CoV Urbani [3] | Binding of serum 62 to linear peptides of protein X2 [3]
0.7: Binding of Control serum LUMC to looped peptides [2] | Binding of serum 1a to linear peptides of protein X2 [3] | Binding of serum 1a to looped/cyclic peptides of protein X2 of SARS-CoV Urbani [3] | Binding of serum 62 to looped/cyclic peptides of protein X2 of SARS-CoV Urbani [3]
0.9: Binding of Control Serum Blood-Bank to Looped peptides [2] | Binding of Control serum Blood-bank to linear peptides [2]

IPYNSVTDTIVVTEG
0.5: Binding of Control serum LUMC to linear peptides [2] | Binding of serum 1a to looped/cyclic peptides of protein X1 of SARS-CoV Urbani [3] | Binding of serum 1b to linear peptides of protein X1 of SARS-CoV Urbani [3] | Binding of serum 2 to linear peptides of protein X1 of SARS-CoV Urbani [3] | Binding of serum 37 to looped/cyclic peptides of protein X1 of SARS-CoV Urbani [3] | Binding of serum 62 to looped/cyclic peptides of protein X1 of SARS-CoV Urbani [3]
0.3: Binding of a rabbit serum to looped peptides [1] | Binding of serum 6 to looped/cyclic peptides of protein X1 of SARS-CoV Urbani [3] | Binding of serum SARS-green to linear peptides of protein X1 of SARS-CoV Urbani [3] | Binding of serum SARS-green to looped/cyclic peptides of protein X1 of SARS-CoV Urbani [3]
0.1: Binding of a rabbit serum to linear peptides [1]
0.4: Binding of Control serum Blood-bank to linear peptides [2] | Binding of Control serum LUMC to looped peptides [2] | Binding of serum 1b to looped/cyclic peptides of protein X1 of SARS-CoV Urbani [3] | Binding of serum 2 to looped/cyclic peptides of protein X1 of SARS-CoV Urbani [3] | Binding of serum 6 to linear peptides of protein X1 of SARS-CoV Urbani [3] | Binding of serum 62 to linear peptides of protein X1 of SARS-CoV Urbani [3] | Binding of serum SARS-yellow to linear peptides of protein X1 of SARS-CoV Urbani [3]
0.2: Binding of serum London to linear peptides of protein X1 of SARS-CoV Urbani [3] | Binding of serum London to looped/cyclic peptides of protein X1 of SARS-CoV Urbani [3] | Binding of serum SARS-yellow to looped/cyclic peptides of protein X1 of SARS-CoV Urbani [3]
0.6: Binding of Control Serum Blood-Bank to Looped peptides [2] | Binding of serum 37 to linear peptides of protein X1 of SARS-CoV Urbani [3]
0.7: Binding of serum 1a to linear peptides of protein X1 of SARS-CoV Urbani [3]
